Experimental data reported in patent US5493027A, “Anticonvulsive agents and uses thereof” (priority 1993, dated 1996).
“Also recorded” adds a separate entry of the source. Read-outs that look alike come from different tables or passages of the source.

Columns and labels:
[1] = tested on: pentylenetetrazole (Metrazol) induced seizures; test: Subcutaneous pentylenetetrazole (Metrazol) seizure threshold test (Met) in mice; format: in vivo, male Carworth Farms number-1 mice; conditions: for (Maximum Ineffective) Intraperitoneal Dose, Met: Table 7, value in parentheses = maximum ineffective dose; for minimal effective dose: Mus musculus, ip; for Sc MET: mice i.p.
Protocol: (§1) Compounds were screened for anticonvulsant activity in male Carworth Farms number-1 mice. Test solutions of all compounds were prepared in 30% polyethylene glycol 400, and animals were dosed intraperitoneally at either 30 minutes or 4 hours prior to testing. Testing was conducted on four mice at each of three dose levels (30, 100, and 300 mg/kg).
(§2) In the subcutaneous pentylenetetrazole (Metrazol) seizure threshold test(met), 85 mg/kg pentylenetetrazole was administered as a 0.5% solution in the posterior midline. Protection in this test was defined as a failure to observe a single episode of clonic spasms of at least 5 s duration during the 30 minute period following administration of the convulsive agent.
as §1, with “Biological testing--Compounds” for “Compounds”, “number-one” for “number-1”, “min” for “minutes”, “h” for “hours”
as §2, with “test (Met),” for “test(met),”, “min” for “minute”

[2] = biological target: T1, strychnine-insensitive glycine binding site of the NMDA receptor (Rattus norvegicus, UniProt P35439); test: Inhibition of [3H]glycine specific binding (strychnine-insensitive) in rat cerebral cortex membranes; conditions: 10 uM compound
T1 construct: Membranes were prepared from rat cerebral cortex; from tissue; host or cells: rat cerebral cortex, "buffy coat" membranes
Protocol: Binding Studies--Inhibition of [^3 H]glycine specific binding was assayed using [^3 H]glycine (43 Ci/mmol) obtained from DuPont-New England Nuclear. […] Membranes were prepared from rat cerebral cortex and assays were conducted in Na-free 50 mM HEPES (Sigma) at pH 7.4. Membranes were incubated in a final volume of 1 ml with 20 nM [^3 H]glycine and a 10 uM concentration of the test compound. Although experience has shown that [^3 H]glycine binding in this preparation is strychnine insensitive, 10 uM strychnine was added to the assay mixtures to eliminate the possibility that any effects studied could be mediated through a strychnine-sensitive process. Incubation was continued for 20 min at 4° C. Non-specific binding was determined in the presence of 1 mM glycine and subtracted. All conditions were tested in triplicate in 3 different assays. Binding was terminated using a Brandel M-24C cell harvester employing rapid filtration through GF/C glass fiber filters pre-soaked in 1% (V/V) polyethylenimine. Filters were washed twice with 5 ml buffer cooled to 4° C. Radioactivity bound to the filters was determined with a Beckman LS-500OTD liquid scintillation counter.

[3] = tested on: neurological deficit (rotorod); test: Rotorod test for neurological deficit (TOX) in mice; format: in vivo, male Carworth Farms number-1 mice
Protocol: as §1
(§3) Animals were also tested for neurological deficit using the rotorod. After treatment, the animal was placed on a 1 inch diameter knurled plastic rod rotating at 6 rpm. Neurologic deficit was defined as the failure of the animal to remain on the rod for 1 minute.
as §1, with “Biological testing--Compounds” for “Compounds”, “number-one” for “number-1”, “min” for “minutes”, “h” for “hours”
(§4) Animals were also tested for neurological deficit using the rotorod. After treatment, the animal was placed on a 1 inch diameter knurled plastic rod rotating at 6 rpm. Neurologic deficit was defined as the failure of the animal to remain on the rod for 1 min.

[4] = tested on: seizures induced by electroshock and pentylenetetrazole; test: Anticonvulsant testing, overall (MES and Met); format: in vivo, male Carworth Farms number-1 mice; conditions: for anticonvulsant activity (words) / minimal effective dose: mice, intraperitoneal; for minimal effective dose: Mus musculus, ip, read-out: dose level with anticonvulsant activity (test not given); for CLASS: Phase I Identification: mice, i.p., classes not defined in the patent
Protocol: as §1
(§5) Maximal electroshock seizures (MES) were elicited with a 60 cycle alternatiing current of 50-mA intensity (five to seven times that necessary to evoke minimal electroshock threshold seizures). Current was delivered via corneal electrodes for 0.2 s. A drop of 0.9% saline was instilled in the eye prior to application of electrodes. Abolition of the hindlimb tonic extension component of the seizure was defined as protection in the MES test.
as §2
as §1, with “Biological testing--Compounds” for “Compounds”, “number-one” for “number-1”, “min” for “minutes”, “h” for “hours”
as §5, with “alternating” for “alternatiing”
as §2, with “test (Met),” for “test(met),”, “min” for “minute”

[5] = tested on: maximal electroshock seizures (MES); test: animal or person; format: in vivo, male Carworth Farms number-1 mice; conditions: for MES: mice i.p.; for minimal effective dose: Mus musculus, ip
Protocol: as §1, §5
as §1, with “Biological testing--Compounds” for “Compounds”, “number-one” for “number-1”, “min” for “minutes”, “h” for “hours”
as §5, with “alternating” for “alternatiing”

[6] = Rotorod test for neurological deficit (TOX) in mice; format: in vivo, male Carworth Farms number-1 mice; conditions: mouse, in vivo, ip
Protocol: as §1, §3
as §1, with “Biological testing--Compounds” for “Compounds”, “number-one” for “number-1”, “min” for “minutes”, “h” for “hours”
as §4

[7] = Table 7, value without parentheses = effective dose (neurologic deficit)
[8] = Table 7, value without parentheses = effective dose, read-out: Effective Intraperitoneal Dose, Met
[9] = mice, intraperitoneal, read-out: dose active in Met test
[10] = Table 7, value without parentheses = effective dose, read-out: Effective Intraperitoneal Dose, MES
[11] = mice, intraperitoneal, read-out: dose active in MES test

Structure (SMILES) | [3H]glycine binding inhibition [2] | anticonvulsant activity (words) [4] | minimal effective dose [1, 8] | minimal effective dose [1, 9] | Sc MET ([1]; 30 minutes, 30 mg/kg) | Sc MET ([1]; 30 minutes, 100 mg/kg) | Sc MET ([1]; 30 minutes, 300 mg/kg) | Sc MET ([1]; 4 hours, 30 mg/kg) | Sc MET ([1]; 4 hours, 100 mg/kg) | Sc MET ([1]; 4 hours, 300 mg/kg) | CLASS [4] | MES ([5]; 30 minutes, 30 mg/kg) | MES ([5]; 30 minutes, 100 mg/kg) | MES ([5]; 30 minutes, 300 mg/kg) | MES ([5]; 4 hours, 30 mg/kg) | MES ([5]; 4 hours, 100 mg/kg) | MES ([5]; 4 hours, 300 mg/kg) | other results
O=C(O)c1cccc(C(=O)O)n1 [2,6-pyridine dicarboxylic acid, pyridine-2,6-dicarboxylic acid] | no glycine displacement; also recorded: did neither | did neither |  |  |  |  |  |  |  |  |  |  |  |  |  |  |  | (Maximum Ineffective) Intraperitoneal Dose, Met [1]: 300 mg/kg; Effective Intraperitoneal Dose, Rotorod [3, 7]: 300 mg/kg; crossing of the blood-brain barrier ([3]; evidenced by the rotorod test): did cross the blood-brain barrier; dose causing neurological deficit on rotorod ([3]; mice, intraperitoneal): 300 mg/kg
CCOC(=O)c1cccc(C(=O)OCC)n1 [2,6-pyridine-di-(ethyl carboxylate), 2,6-pyridine-di(ethyl carboxylate)] | potent [^3 H]glycine displacement | had anticonvulsant activity | 100 mg/kg | 100 mg/kg |  |  |  |  |  |  |  |  |  |  |  |  |  | [3H]glycine binding inhibition ([2]; listed as diethyl ester of pyridine-2,6-dicarboxylic acid): inhibited glycine binding; Effective Intraperitoneal Dose, Rotorod ([3]; mouse, in vivo, ip): 300 mg/kg; dose causing neurological deficit on rotorod ([3]; mouse, in vivo, ip): 300 mg/kg; minimal effective dose [4]: 100 mg/kg
Nc1cc(C(=O)O)nc2cc(Cl)cc(Cl)c12 [4-amino-5,7-dichloro-2-quinoline carboxylate acid] |  | lack of anticonvulsive activity |  |  | 0/1 | 0/1 | 0/1 | 0/1 | 0/1 | 0/1 | 3 | 0/1 | 0/3 | 0/1 | 0/1 | 0/3 | 0/1 | 
COC(=O)c1cc(N)c2c(Cl)cc(Cl)cc2n1 [4-amino-5,7-dichloro-2-quinoline carboxylate methyl ester] |  |  |  |  | 0/1 | 1/1 | 0/1 | 0/1 | 0/1 | 0/1 | 1 | 0/1 | 0/3 | 0/1 | 0/1 | 1/3 | 1/1 | 
CNc1cc(C(=O)OC)nc2cc(Cl)cc(Cl)c12 [4-methylamino-5,7-dichloro quinoline 2-carboxylate methyl ester] |  | inactive |  |  | 0/1 | 0/1 | 0/1 | 0/1 | 0/1 | 0/1 | 3 | 0/1 | 0/3 | 0/1 | 0/1 | 0/3 | 0/1 | anticonvulsant activity (words) ([4]; listed as 4-methylamino-5,7-dichloro quinoline 2-carboxylate methyl ester): lack of anticonvulsant activity; anticonvulsant activity (words) ([4]; listed as 5,7-di-Cl-4-methylamino-2-methyl ester): inactive in anticonvulsant testing
CCOC(=O)c1cc(O)c2c(Cl)cc(Cl)cc2n1 [5,7 0-di-Cl-2-ethyl ester, 5,7-dichloro-kynurenate ethyl ester] |  | inactive |  |  |  |  |  |  |  |  |  |  |  |  |  |  |  | 
CNc1cc(C(=O)O)nc2cc(Cl)cc(Cl)c12 [5,7-di-Cl-4-methylamino-kyn-2-COOH, 4-methylamino-5,7-dichloro-2-quinoline carboxylic acid] | best inhibitor of [^3 H]glycine binding |  | 300 mg/kg |  | 0/2 | 0/1 | 1/1 | 0/1 | 0/1 | 0/1 | 2 | 0/1 | 0/3 | 1/1 | 0/1 | 0/3 | 0/1 | Effective Intraperitoneal Dose, Rotorod ([3]; mouse, in vivo, ip): 100 mg/kg; dose causing neurological deficit on rotorod ([3]; mouse, in vivo, ip): 300 mg/kg; TOX comment ([3]; mouse, in vivo, ip, 300 mg/kg): Unable to hold onto rotorod; minimal effective dose [4]: ≤ 100 mg/kg; minimal effective dose [5, 10]: 100 mg/kg; minimal effective dose [5, 11]: 100 mg/kg
CCOC(=O)c1cc2cc(Cl)ccc2[nH]1 [5-Cl-2-ethyl ester] | inactive | inactive; also recorded: abolished activity |  |  |  |  |  |  |  |  |  |  |  |  |  |  |  | 
O=C(O)c1cc2cc(Cl)ccc2[nH]1 [5-Cl-indole-2-COOH, 5-chloro-indole-2-carboxylic acid] | binding competition similar to that seen with the 5-fluoro derivative |  | 100 mg/kg | 100 mg/kg |  |  |  |  |  |  |  |  |  |  |  |  |  | Met activity ([1]; mice, intraperitoneal): Met protection; Effective Intraperitoneal Dose, Rotorod ([3]; mouse, in vivo, ip): 300 mg/kg; dose causing neurological deficit on rotorod ([3]; mouse, in vivo, ip): 300 mg/kg
CCOC(=O)c1cc2cc(O)ccc2[nH]1 [5-hydroxyl-2-ethyl ester] | binding activity | no CNS effects |  |  |  |  |  |  |  |  |  |  |  |  |  |  |  | 
COc1ccc2[nH]c(C(=O)O)cc2c1 [5-methoxy-indole-2-COOH] |  | no anticonvulsant activity |  |  |  |  |  |  |  |  |  |  |  |  |  |  |  | (Maximum Ineffective) Intraperitoneal Dose, Met [1]: 300 mg/kg; Effective Intraperitoneal Dose, Rotorod ([3]; mouse, in vivo, ip): 300 mg/kg
CCOC(=O)c1cc2cc(OC)ccc2[nH]1 [5-methoxy-indole-2-ethyl ester, 5-methoxy-indole-2-ethyl carboxylate] | did not compete for [^3 H]glycine binding; also recorded: did not inhibit [^3 H]glycine binding |  | 100 mg/kg | 100 mg/kg |  |  |  |  |  |  |  |  |  |  |  |  |  | Effective Intraperitoneal Dose, Rotorod [3, 7]: 300 mg/kg; dose causing neurological deficit on rotorod ([3]; mice, intraperitoneal): 300 mg/kg; minimal effective dose [5, 10]: 300 mg/kg; minimal effective dose [5, 11]: 300 mg/kg
Cc1cc2c(O)cc(C(=O)O)nc2cc1Cl [6-CH3-7-Cl-2-COOH] | glycine-binding inhibition | no anticonvulsant activity |  |  |  |  |  |  |  |  |  |  |  |  |  |  |  | 
Cc1c(Cl)ccc2c(O)cc(C(=O)O)nc12 [7-Cl-8-methyl-kyn-2-COOH] |  |  | 300 mg/kg | 300 mg/kg |  |  |  |  |  |  |  |  |  |  |  |  |  | NOAEL [6]: 300 mg/kg
CCOC(=O)c1cc(O)c2ccc(Cl)cc2n1 [7-Cl-kyn-2-ethyl ester] |  |  | 300 mg/kg | 300 mg/kg |  |  |  |  |  |  |  |  |  |  |  |  |  | NOAEL [6]: 300 mg/kg
CCCCOC(=O)c1cc(NC)c2c(Cl)cc(Cl)cc2n1 [Butyl 4-Methylamino-5,7-dichloro-2-quinoline Carboxylate] |  | inactive |  |  | 0/1 | 0/1 | 0/1 | 0/1 | 0/1 | 0/1 | 31 | 0/1 | 0/3 | 0/1 | 0/1 | 0/3 | 0/1 | anticonvulsant activity (words) ([4]; listed as 5,7-di-Cl-4-methylamino-2-butyl ester): inactive in anticonvulsant testing; anticonvulsant activity (words) ([4]; listed as ester-4-methylamino-5,7-dichloro quinoline-2-carboxylate n-butyryl): lack of anticonvulsant activity
